Reference: US4389327A, “Use of selected 1,2-dihydro-1,2,4,5-tetrazines as oxygen-scavenging agents” (priority 1982, dated 1983)

How the values were obtained:
[1] = Deoxygenation of air-saturated buffered distilled water (oxygen meter), time for removal of dissolved oxygen; settings: pH 9.5, about 25° C.; for T1/2, time required for removal of half of the dissolved oxygen: 2.4×10^-4 moles dissolved O2; for T9/10, time for removal of 90% of the oxygen: measured if under 10 minutes
Method: Weighed amounts of this compound were placed in 100 ml volumetric flasks and diluted with deoxygenated, deionized water. Aliquots of this mixture were injected in the test cell as shown in Example 4.
Again, weighed amounts of this compound were placed in 100 ml volumetric flasks and diluted with deoxygenated, deionized water. Aliquots of this mixture were injected into the test cell as shown in Example 4.
These deoxygenation measurements were run in a one liter round bottom flask equipped with a small septum-covered side arm and a standard taper joint into which was inserted the probe of an oxygen meter (Model 54 made by Yellow Springs Instrument Co. of Yellow Springs, Ohio). For each test, the flask was filled with air-saturated, buffered (with Na2 CO3 /NaHCO3 to pH of 9.5) distilled water. The amount of dissolved O2 content in the water was 2.4×10^-4 moles.
After filling with water, the probe was inserted into the flask and a sample of the compound made in Examples 1, 2, or 3 was injected through the side arm.
The times required for removal of half of the dissolved oxygen were measured (T1/2). Also, the times for removal of 90% of the oxygen (T9/10) were also measured if under 10 minutes.

[2] = Water solubility (remark); format: physicochemical
[3] = amount of compound 2.4 × 10^-4 moles
[4] = amount of compound 7.2 × 10^-4 moles
[5] = amount of compound 12.0 × 10^-4 moles

SMILES | T1/2, time required for removal of half of the dissolved oxygen [1, 3] [min] | T1/2, time required for removal of half of the dissolved oxygen [1, 4] [min] | T9/10, time for removal of 90% of the oxygen [1, 4] [min] | T1/2, time required for removal of half of the dissolved oxygen [1, 5] [min] | T9/10, time for removal of 90% of the oxygen [1, 5] [min] | water solubility [2]
CCC1=NN=C(CC)NN1 [3,6-diethyl-1,2-dihydro-1,2,4,5-tetrazine] | 7.5 | 0.9 | 1.5 | 0.6 | 0.9 | 
CC1=NN=C(C)NN1 [3,6-dimethyl-1,2-dihydro-1,2,4,5-tetrazine] |  | 1.5 | 2.2 | 0.12 | 0.30 | 
c1ccc(C2=NNC(c3ccccc3)=NN2)cc1 [3,6-diphenyl-1,2-dihydro-1,2,4,5-tetrazine] | 6 |  |  |  |  | limited water solubility
NN [hydrazine, reference compound] |  |  |  | > 10 |  | 
